Patent US20260297105A1, “RAF-MEK PROTEIN COMPLEX MODULATORS AND METHODS OF USE THEREOF” (GANDEEVA THERAPEUTICS, INC., priority 2023, published 2026)
Like-named read-outs stand apart in the source and are kept apart here.

Columns and labels:
BRAF-MEK1 = test: BRAF-MEK TR-FRET assay, stabilization of MEK1 and BRAF interaction; type: binding; conditions: 4 nM BRAF, 10 nM MEK, 100 μM ATP, 1 hr at 25° C., read-out: BRAF-MEK TR-FRET Assay (EC50, fold stabilization)
Description: (§1) Protein expression and purification: BRAF (445-723) with N-term His-tag and C-term StrepII tag was expressed using the Expi293 system (ThermoFisher) and purified using Strep-Tactin® XT-Superflow (IBA) chromatography. ERK1 (full-length) with N-term His-tag was expressed in Rosetta DE3 cells (Millipore) and purified using HisTrap HP (Cytiva) and Superdex 200 (Cytiva) column chromatography. Full-length MEK1 for TR-FRET assays with N-term His-tag was expressed in BL21DE3 cells (ThermoFisher) and purified using HisTrap HP (Cytiva) and Superdex 200 (Cytiva) column chromatography.
Efficacy of exemplary compounds in stabilization of MEK1 and BRAF interaction: Compound stabilization of BRAF-MEK interaction was evaluated using TR-FRET (Time Resolved Fluorescence Energy Transfer). The FRET assay consisted of His-tagged MEK1 (produced in-house), GST-tagged BRAF (SignalChem, B08-11G), Anti His-Tb Cryptate donor, and Anti GST-XL665 acceptor fluorophores (PerkinElmer) to generate FRET signal upon BRAF-MEK1 binding. Compounds were prepared from DMSO stocks in assay buffer (50 mM Tris pH 7.5, 150 mM NaCl, 1 mM DTT, 0.05% Tween-20, 5 mM MgCl2, and 100 μM ATP) and incubated with 4 nM BRAF and 10 nM MEK for 1 hr at 25° C. 1 ng Anti His-Tb Cryptate/20 ng Anti GST-XL665 premix was then added and incubated for 1 hr at 25° C. TR-FRET was measured using Cytation5 microplate reader (Agilent) using Ex/Em=340/620 nm and Ex/Em=340/665 nm to determine the FRET ratio. Fold stabilization was calculated as FRET signal of treated well/DMSO control. Fold stabilization as a function of compound concentration from 2 replicate wells was fit with a 4-parameter logistic curve equation using GraphPad Prism or CDD Vault to derive EC50 values.
(§2) In this table, for the BRAF ADP Glo kinase assay, “A” indicates IC50 of less than 5 nM; “B” indicates IC50 of between 5 nM to 50 nM; and “C” indicates IC50 of between 50 nM to 500 nM. “D” indicates IC50 of greater than 500 nM. For the BRAF-MEK TR-FRET assay, “A” indicates EC50 of less than 50 nM; “B” indicates EC50 of between 50 nM to 200 nM; and “C” indicates EC50 of between 200 nM to 1 μM. “D′” indicates EC50 of greater than 1 μM. For the AlphaLisa P-ERK assay, “A” indicates IC50 of less than 1 nM; “B” indicates IC50 of between 1 nM to 10 nM; and “C” indicates IC50 of between 10 nM to 100 nM. “D” indicates IC50 of greater than 100 nM. For the cell viability assay, “A” indicates IC50 of less than 1 nM; “B” indicates IC50 of between 1 nM to 10 nM; and “C” indicates IC50 of between 10 nM to 100 nM. “D” indicates IC50 of greater than 100 nM.

MEK1 = molecular target: T1, MEK1 (Homo sapiens, UniProt Q02750); test: MEK1 kinase cascade assay (ADP-Glo), inhibition of MEK1 kinase activity; type: biochemical; conditions: 25 nM BRAF, 6.25 nM MEK1, 0.5 μM ERK, 1 mM ATP; 20 min preincubation, 1 hr at 25° C.; read-out: BRAF ADP Glo kinase assay V3 (IC50)
T1 construct: purchased SignalChem M02-14H
Description: as §1
Efficacy of exemplary compounds in inhibition of MEK1 kinase activity: The effect of compound MEK1 inhibition was evaluated using an ADP detection system for kinases, such as the ADP-Glo assay (Promega). The MEK1 kinase cascade assay consisted of 9 μL reaction volumes in 384-well white, opaque Optiplates (PerkinElmer). Compounds were prepared from DMSO stocks in assay buffer (10 mM HEPES pH 7.5, 5 mM MgCl2, 2 mM CHAPS, and 1 mM DTT) and preincubated with 25 nM BRAF for 20 mins at 25° C. prior to addition of 6.25 nM MEK1/0.5 μM ERK/1 mM ATP premix to initiate the kinase reaction. Both BRAF and ERK1 were produced in-house, and MEK1 was purchased from SignalChem (M02-14H). DMSO was kept constant at a final concentration of 1%. After a 1 hr incubation at 25° C., conversion of ATP to ADP was detected using ADP-Glo™ reagents according to the manufacturer's protocol. Luminescence was measured using a CLARIOstar microplate reader (BMG). Percent (%) Inhibition was calculated by normalizing to DMSO control (max) and 1 μM Trametinib (min). % inhibition as a function of compound concentration from 2 replicate wells was fit with a 4-parameter logistic curve equation using GraphPad Prism or CDD Vault to derive IC50 values.
as §2

T1 sequence (Q02750 whole entry): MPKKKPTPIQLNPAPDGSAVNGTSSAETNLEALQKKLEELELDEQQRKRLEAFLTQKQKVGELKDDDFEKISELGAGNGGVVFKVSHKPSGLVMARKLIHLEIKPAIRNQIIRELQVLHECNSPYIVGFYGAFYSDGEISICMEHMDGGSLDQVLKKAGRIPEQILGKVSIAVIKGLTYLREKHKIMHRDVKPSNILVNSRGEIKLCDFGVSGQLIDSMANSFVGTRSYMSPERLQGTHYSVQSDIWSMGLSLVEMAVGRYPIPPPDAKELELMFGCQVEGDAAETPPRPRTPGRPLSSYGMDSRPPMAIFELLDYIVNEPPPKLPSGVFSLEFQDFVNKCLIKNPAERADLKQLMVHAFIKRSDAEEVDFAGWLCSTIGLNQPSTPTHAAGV
T1 sequence (P15056 445-723 partner limits assumed): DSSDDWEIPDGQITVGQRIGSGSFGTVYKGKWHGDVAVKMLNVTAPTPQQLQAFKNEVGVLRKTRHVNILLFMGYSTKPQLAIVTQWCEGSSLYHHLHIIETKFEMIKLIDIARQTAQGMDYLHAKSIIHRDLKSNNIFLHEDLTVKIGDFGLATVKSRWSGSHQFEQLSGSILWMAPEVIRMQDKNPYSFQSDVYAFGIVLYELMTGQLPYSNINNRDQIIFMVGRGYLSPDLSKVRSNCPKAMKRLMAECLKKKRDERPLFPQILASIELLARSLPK

Work on `CNS(=O)(=O)Nc1nccc(CN2C(=O)Oc3cc(Oc4cccnn4)ccc3[C@H]2C)c1F` (single isomer, unassigned) [Compound 23] yielded an EC50 (BRAF-MEK1) of under 50 nM and an IC50 (MEK1) of 5 to 50 nM.

Work on `CNS(=O)(=O)Nc1cccc(CN2C(=O)Oc3c(ccc(Oc4cccnn4)c3F)[C@H]2C)c1F` (single isomer, unassigned) [Compound 36] yielded an EC50 (BRAF-MEK1) of 50 to 200 nM and an IC50 (MEK1) of 5 to 50 nM.

`C[C@H]1c2ccc(Oc3cccnn3)c(F)c2OC(=O)N1Cc1cccc(NS(=O)(=O)N(C)C)c1F` (single isomer, unassigned) [Compound 44] gave an EC50 (BRAF-MEK1) of 200 to 1000 nM and an IC50 (MEK1) of under 5 nM.

Molecule `C[C@H]1c2c(F)cc(Oc3cccnn3)cc2OC(=O)N1Cc1cccc(NS(=O)(=O)C2CC2)c1F` (single isomer, unassigned) [Compound 55] has an EC50 (BRAF-MEK1) of 200 to 1000 nM and an IC50 (MEK1) of 5 to 50 nM.

`CNS(=O)(=O)Nc1cccc(CN2C(=O)Oc3cc(Oc4ncco4)c(F)cc3C2C)c1F` (single isomer, unassigned) [Compound 85, (R)-6-fluoro-3-({2-fluoro-3-(methylsulfamoyl)amino]phenyl}methyl)-4-methyl-7-(1,3-oxazol-2-yloxy)-3,4-dihydro-2H-1,3-benzoxazin-2-one or (S)-6-fluoro-3-({2-fluoro-3-(methylsulfamoyl)amino]phenyl}methyl)-4-methyl-7-(1,3-oxazol-2-yloxy)-3,4-dihydro-2H-1,3-benzoxazin-2-one] was tested, and the EC50 (BRAF-MEK1) was 200 to 1000 nM and the IC50 (MEK1) was 5 to 50 nM.

`CNS(=O)(=O)Nc1cccc(CN2C(=O)Oc3cc(Oc4ncco4)cc(F)c3[C@@H]2C)c1F` (single isomer, unassigned) [Compound 86, (S)-5-fluoro-3-({2-fluoro-3-(methylsulfamoyl)amino]phenyl}methyl)-4-methyl-7-(1,3-oxazol-2-yloxy)-3,4-dihydro-2H-1,3-benzoxazin-2-one or (R)-5-fluoro-3-({2-fluoro-3-(methylsulfamoyl)amino]phenyl}methyl)-4-methyl-7-(1,3-oxazol-2-yloxy)-3,4-dihydro-2H-1,3-benzoxazin-2-one] showed an EC50 (BRAF-MEK1) of 200 to 1000 nM and an IC50 (MEK1) of 5 to 50 nM.

`CNS(=O)(=O)Nc1cccc(CN2C(=O)Oc3c(ccc(Oc4ncco4)c3F)[C@@H]2C)c1F` (single isomer, unassigned) [Compound 89, (S)-8-fluoro-3-({2-fluoro-3-(methylsulfamoyl)amino]phenyl}methyl)-4-methyl-7-(1,3-oxazol-2-yloxy)-3,4-dihydro-2H-1,3-benzoxazin-2-one or (R)-8-fluoro-3-({2-fluoro-3-(methylsulfamoyl)amino]phenyl}methyl)-4-methyl-7-(1,3-oxazol-2-yloxy)-3,4-dihydro-2H-1,3-benzoxazin-2-one] was tested, and the EC50 (BRAF-MEK1) was 200 to 1000 nM and the IC50 (MEK1) was under 5 nM.

`CNS(=O)(=O)Nc1cccc(CN2C(=O)Oc3c(ccc(OC(=O)N(C)C)c3F)[C@H]2C)c1F` (single isomer, unassigned) [Compound 104, (R)-8-fluoro-3-(2-fluoro-3-((N-methylsulfamoyl)amino)benzyl)-4-methyl-2-oxo-3,4-dihydro-2H-benzo[e][1,3]oxazin-7-yl dimethylcarbamate or (S)-8-fluoro-3-(2-fluoro-3-((N-methylsulfamoyl)amino)benzyl)-4-methyl-2-oxo-3,4-dihydro-2H-benzo[e][1,3]oxazin-7-yl dimethylcarbamate] was tested, and the EC50 (BRAF-MEK1) was 200 to 1000 nM and the IC50 (MEK1) was 5 to 50 nM.

`CNS(=O)(=O)Nc1nccc(CN2C(=O)Oc3cc(Oc4ncco4)c(F)cc3C2C)c1F` (single isomer, unassigned) [Compound 185, 6-fluoro-3-{[3-fluoro-2-(methylaminosulfonylamino)-4-pyridyl]methyl}-4-methyl-7-(1,3-oxazol-2-yloxy)-3,4-dihydro-2H-1,3-benzoxazin-2-one] gave an EC50 (BRAF-MEK1; 60 min) of 50 to 200 nM and an IC50 (MEK1) of 5 to 50 nM.

For `CNS(=O)(=O)Nc1nccc(CN2C(=O)Oc3cc(Oc4ncco4)c(F)cc3C2C)c1F` (single isomer, unassigned) [Compound 186, 6-fluoro-3-{[3-fluoro-2-(methylaminosulfonylamino)-4-pyridyl]methyl}-4-methyl-7-(1,3-oxazol-2-yloxy)-3,4-dihydro-2H-1,3-benzoxazin-2-one], the EC50 (BRAF-MEK1; 60 min) was 200 to 1000 nM and the IC50 (MEK1) was 50 to 500 nM.

For `CNS(=O)(=O)Nc1cccc(CN2C(=O)Oc3cc(Oc4cccnn4)cnc3[C@H]2C)c1F` (stereo in doubt) [Compound 175], the EC50 (BRAF-MEK1) was 50 to 200 nM and the IC50 (MEK1) was 5 to 50 nM.

Molecule `CNS(=O)(=O)Nc1nccc(CN2C(=O)Oc3cc(Oc4ncco4)cnc3[C@@H]2C)c1F` (stereo in doubt) [Compound 191, 3-{[3-fluoro-2-(methylaminosulfonylamino)-4-pyridyl]methyl}-4-methyl-7-(1,3-oxazol-2-yloxy)-3,4-dihydro-2H-1-oxa-3,5-diazanaphthalen-2-one] has an EC50 (BRAF-MEK1) of 50 to 200 nM and an IC50 (MEK1) of 50 to 500 nM.

For `CNS(=O)(=O)Nc1nccc(CN2C(=O)Oc3cc(Oc4cccnn4)cnc3[C@H]2C)c1F` (stereo in doubt) [Compound 192, 3-{[3-fluoro-2-(methylaminosulfonylamino)-4 pyridyl]methyl}-4-methyl-7-(3-pyridazinyloxy)-3,4-dihydro-2H-1-oxa-3,5 diazanaphthalen-2-one], the EC50 (BRAF-MEK1; 60 min) was 200 to 1000 nM and the IC50 (MEK1) was 5 to 50 nM.

`CNS(=O)(=O)Nc1cccc(CN2Cc3cc(Cl)c(OC(=O)C(C)C)cc3OC2=O)c1F` [Compound 129, 6-chloro-3-(2-fluoro-3-((N-methylsulfamoyl)amino)benzyl)-2-oxo-3,4-dihydro-2H-benzo[e][1,3]oxazin-7-yl isobutyrate] was tested, and the EC50 (BRAF-MEK1) was 200 to 1000 nM.

Work on `CNS(=O)(=O)Nc1cccc(CN2Cc3cc(Cl)c(OC(=O)C4CC4)cc3OC2=O)c1F` [Compound 130, 6-chloro-3-(2-fluoro-3-((N-methylsulfamoyl)amino)benzyl)-2-oxo-3,4-dihydro-2H-benzo[e][1,3]oxazin-7-yl cyclopropanecarboxylate] yielded an EC50 (BRAF-MEK1) of 50 to 200 nM.

Work on `CNS(=O)(=O)Nc1cccc(CN2Cc3ccc(OC(=O)C4CC4)cc3OC2=O)c1F` [Compound 147, 3-(2-fluoro-3-((N-methylsulfamoyl)amino)benzyl)-2-oxo-3,4-dihydro-2H-benzo[e][1,3]oxazin-7-yl cyclopropanecarboxylate] yielded an EC50 (BRAF-MEK1) of 50 to 200 nM.

In the case of `CNS(=O)(=O)Nc1nccc(CN2C(=O)Oc3cc(Oc4ncccn4)ccc3C23CCC3)c1F` [Compound 160, 3-{[3-fluoro-2-(methylaminosulfonylamino)-4-pyridyl]methyl}-7-(2-pyrimidinyloxy)-2H,3H-spiro[1,3-benzoxazine-4,1′-cyclobutan]-2-one], the EC50 (BRAF-MEK1) is reported as 200 to 1000 nM.

For `O=C1Oc2cc(Oc3cccnn3)ccc2C2(CCC2)N1Cc1ccnc(NS(=O)(=O)C2CC2)c1F` [Compound 163, (cyclopropylsulfonyl)[3-fluoro-4-({2-oxo-7-(3-pyridazinyloxy)-2H,3H-spiro[1,3-benzoxazine-4,1′-cyclobutan]-3-yl}methyl)-2-pyridyl]amine], the EC50 (BRAF-MEK1) was 200 to 1000 nM.
